Measurements taken from ChEMBL document CHEMBL4334442, “Effects of Acetylshikonin on the Infection and Replication of Coxsackievirus A16 in Vitro and in Vivo” (J Nat Prod, 2019).
The source made the active and inactive calls. No cut-off for these calls is given here.

Experiments:
Coxsackievirus A16 [1] = test: Antiviral activity against Coxsackievirus A16 TA271 infected in ICR mouse assessed as reduction in muscle fiber breakage in hind limb muscle at 2 mg/kg, im after 5 days post infection by H and E staining based histopathological analysis; type: functional, organism-based
[2] = Cytotoxicity against human RD cells assessed as cell survival at <5 uM after 24 hrs by CCK8 assay relative to control; type: cell-based; conditions: read-out: Activity
Coxsackievirus A16 [3] = test: Antiviral activity against Coxsackievirus A16 16038 infected in RD cells assessed as reduction in viral genome copies at 0.08 uM/L preincubated with viral suspension for 2 hrs followed by cell addition and measured at 24 hrs post infection by RT-PCR analysis; type: functional, cell-based
Coxsackievirus A16 [4] = test: (§1) Antiviral activity against Coxsackievirus A16 TA271 infected in RD cells at release stage assessed as cell fragmentation at 0.08 uM/L preincubated with cells for 1 hr followed by replacement of fresh medium containing compounds after 5 hrs post infection and further incubated for 16 hrs post infection by inverted microscopic analysis; type: functional, cell-based
Coxsackievirus A16 [5] = test: Antiviral activity against Coxsackievirus A16 TA271 infected in ICR mouse assessed as reduction in inflammatory cell infiltration in hind limb muscle at 2 mg/kg, im after 5 days post infection by H and E staining based histopathological analysis; type: functional, organism-based
Coxsackievirus A16 [6] = test: Antiviral activity against Coxsackievirus A16 TA271 infected in ICR mouse assessed as mild alveolar wall thickening in spinal muscle at 2 mg/kg, im after 5 days post infection by H and E staining based histopathological analysis; type: functional, organism-based
Coxsackievirus A16 [7] = test: Antiviral activity against Coxsackievirus A16 TA271 infected in ICR mouse assessed as reduction in virus-induced IL-6 level at 0.08 uM/L preincubated with viral suspension for 2 hrs followed by intramuscular administration after 3 days post infection by ELISA; type: functional
Coxsackievirus A16 [8] = test: Antiviral activity against Coxsackievirus A16 TA271 infected in ICR mouse assessed as reduction in muscle fiber breakage in spinal muscle at 2 mg/kg, im after 5 days post infection by H and E staining based histopathological analysis; type: functional, organism-based
Coxsackievirus A16 [9] = test: Antiviral activity against Coxsackievirus A16 TA271 infected in RD cells assessed as log reduction in viral genome copies at 0.08 uM/L preincubated with viral suspension for 2 hrs followed by cell addition and measured at 24 hrs post infection by RT-PCR analysis; type: functional
Coxsackievirus A16 [10] = test: Antiviral activity against Coxsackievirus A16 TA271 infected in ICR mouse assessed as reduction in lesions in spinal muscle at 2 mg/kg, im after 5 days post infection by H and E staining based histopathological analysis; type: functional, organism-based
Coxsackievirus A16 [11] = test: Antiviral activity against Coxsackievirus A16 TA271 infected in ICR mouse assessed as mild alveolar fibrosis in lung at 2 mg/kg, im after 5 days post infection by H and E staining based histopathological analysis; type: functional, organism-based
Coxsackievirus A16 [12] = test: Antiviral activity against Coxsackievirus A16 TA271 infected in ICR mouse assessed as effect on virus-induced IL-6 level at 0.08 uM/L preincubated with viral suspension for 2 hrs followed by intramuscular administration after 3 days post infection by ELISA; type: functional
Coxsackievirus A16 [13] = test: Antiviral activity against Coxsackievirus A16 TA271 infected in ICR mouse assessed as reduction in lesions in heart at 2 mg/kg, im after 5 days post infection by H and E staining based histopathological analysis; type: functional, organism-based
Coxsackievirus A16 [14] = test: Antiviral activity against Coxsackievirus A16 TA271 infected in ICR mouse assessed as reduction in viral load in heart at 2 mg/kg, im after 3 to 5 days post infection by RT-PCR analysis; type: functional, organism-based
Coxsackievirus A16 [15] = test: Antiviral activity against Coxsackievirus A16 TA271 infected in ICR mouse assessed as mild alveolar wall thickening in heart at 2 mg/kg, im after 5 days post infection by H and E staining based histopathological analysis; type: functional, organism-based
Coxsackievirus A16 [16] = test: Antiviral activity against Coxsackievirus A16 TA271 infected in RD cells assessed as inhibition of viral adsorption/viral entry by measuring increase in cell viability at 0.08 uM/L after 1 hr by inverted microscopic analysis; type: functional, cell-based
Coxsackievirus A16 [17] = test: Antiviral activity against Coxsackievirus A16 TA271 infected in ICR mouse assessed as reduction in virus-induced IFN-gamma level at 0.08 uM/L preincubated with viral suspension for 2 hrs followed by intramuscular administration after 3 days post infection by ELISA; type: functional
Coxsackievirus A16 [18] = test: Antiviral activity against Coxsackievirus A16 TA271 infected in ICR mouse assessed as increase in inflammatory cell proliferation in spinal muscles at 0.08 uM/L preincubated with viral suspension for 2 hrs followed by intramuscular administration after 5 days post infection by H and E staining based histopathological analysis; type: functional
Coxsackievirus A16 [19] = test: Antiviral activity against Coxsackievirus A16 TA271 infected in ICR mouse assessed as mouse survival at 0.08 uM/L preincubated with viral suspension for 2 hrs followed by intramuscular administration and measured on day 7 post infection relative to control; type: functional; conditions: Enterovirus A, TA271, im
Coxsackievirus A16 [20] = test: Antiviral activity against Coxsackievirus A16 TA271 infected in ICR mouse assessed as reduction in viral load in spinal muscle at 2 mg/kg, im after 3 to 5 days post infection by RT-PCR analysis; type: functional, organism-based
Coxsackievirus A16 [21] = test: Antiviral activity against Coxsackievirus A16 TA271 infected in RD cells at preinfection stage assessed as appearance of rounded cells at 0.08 uM/L preincubated with cells for 3 hrs followed by viral infection and measured after 1 hr by inverted microscopic analysis; type: functional, cell-based
[22] = Cytotoxicity against human RD cells assessed as reduction in cell viability after 12 hrs by CCK8 assay; type: cell-based
Coxsackievirus A16 [23] = test: as §1, with “assessed as appearance of cell shrinkage” for “assessed as cell fragmentation”, “of cell shrinkage at 0.08” for “as cell fragmentation at 0.08”; type: functional, cell-based
Coxsackievirus A16 [24] = test: Antiviral activity against Coxsackievirus A16 TA271 infected in RD cells at preinfection stage assessed as cell fragmentation at 0.08 uM/L preincubated with cells for 3 hrs followed by viral infection and measured after 1 hr by inverted microscopic analysis; type: functional, cell-based
Coxsackievirus A16 [25] = test: Antiviral activity against Coxsackievirus A16 TA271 infected in ICR mouse assessed as mild alveolar fibrosis in hind limb muscle at 2 mg/kg, im after 5 days post infection by H and E staining based histopathological analysis; type: functional, organism-based
Coxsackievirus A16 [26] = test: Antiviral activity against Coxsackievirus A16 TA271 infected in RD cells assessed as inhibition of viral adsorption/entry by measuring reduction in viral load at 0.08 uM/L incubated for 1 hr and measured after 48 hrs post infection by RT-PCR analysis; type: functional, cell-based
Coxsackievirus A16 [27] = test: Antiviral activity against Coxsackievirus A16 TA271 infected in ICR mouse assessed as mild alveolar fibrosis in heart at 2 mg/kg, im after 5 days post infection by H and E staining based histopathological analysis; type: functional, organism-based
Coxsackievirus A16 [28] = test: Antiviral activity against Coxsackievirus A16 TA271 infected in ICR mouse assessed as reduction in muscle fiber breakage in lung at 2 mg/kg, im after 5 days post infection by H and E staining based histopathological analysis; type: functional, organism-based
Coxsackievirus A16 [29] = test: (§2) Antiviral activity against Coxsackievirus A16 TA271 infected in RD cells at replication stage assessed as cell detachment at 0.08 uM/L 1 hr post-infection viral inoculum was removed and cells incubated with medium containing compound and measured after 5 hrs by inverted microscopic analysis; type: functional, cell-based
Coxsackievirus A16 [30] = test: as §2, with “increase in intracytoplasmic granules” for “cell detachment”; type: functional, cell-based

For `CC(=O)OC(CC=C(C)C)C1=CC(=O)c2c(O)ccc(O)c2C1=O` (stereo not given), the Activity (Coxsackievirus A16 [1]) was “Active”, the viability at 24 h [2] was over 90% and the Activity (Coxsackievirus A16 [3]) was “Active”. The Activity (Coxsackievirus A16 [4]) was “inactive”, the Activity (Coxsackievirus A16 [5]) was “Active” and the Activity (Coxsackievirus A16 [6]) was “Active”. For the same compound, the Activity (Coxsackievirus A16 [7]) was “Active”, the Activity (Coxsackievirus A16 [8]) was “Active” and the LCK (Coxsackievirus A16 [9]) was over 2. For the same compound, the Activity (Coxsackievirus A16 [10]) was “Active”, the Activity (Coxsackievirus A16 [11]) was “Active” and the Activity (Coxsackievirus A16 [12]) was “inactive”. For the same compound, the Activity (Coxsackievirus A16 [13]) was “Active”, the Activity (Coxsackievirus A16 [14]) was “Active” and the Activity (Coxsackievirus A16 [15]) was “Active”. The inhibition (Coxsackievirus A16 [16]) was “Active”, the Activity (Coxsackievirus A16 [17]) was “Active” and the Activity (Coxsackievirus A16 [18]) was “Active”. For the same compound, the survival at 0.08 µM (Coxsackievirus A16 [19]) was 70%, the Activity (Coxsackievirus A16 [20]) was “Active” and the Activity (Coxsackievirus A16 [21]) was “inactive”. For the same compound, the CC50 at 12 h [22] was 9.4 µM, the Activity (Coxsackievirus A16 [23]) was “inactive” and the Activity (Coxsackievirus A16 [24]) was “inactive”. The Activity (Coxsackievirus A16 [25]) was “Active”, the Activity (Coxsackievirus A16 [26]) was “Active” and the Activity (Coxsackievirus A16 [27]) was “Active”. The Activity (Coxsackievirus A16 [28]) was “Active”, the Activity (Coxsackievirus A16 [29]) was “inactive” and the Activity (Coxsackievirus A16 [30]) was “inactive”.
